Assay results taken from PubChem BioAssay (NCI).
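Five compound concentrations were applied to cells in 96-well plates for 48 hours; endpoints were derived by simple linear interpolation of the resulting dose-response curve. The concentration for 50% growth inhibition is given as GI50. TGI: concentration producing complete growth inhibition.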

How the values were obtained:
Assay in all cases: DTP human tumour cell line panel, 48 h
SF-268 CNS = system: SF-268 CNS
NCI-H23 lung = system: NCI-H23 lung
COLO 205 colon = system: COLO 205 colon
NCI-H226 lung = system: NCI-H226 lung
HCT-116 colon = system: HCT-116 colon
HL-60(TB) leukemia = system: HL-60(TB) leukemia
BT-549 breast = system: BT-549 breast
M14 melanoma = system: M14 melanoma
ACHN renal = system: ACHN renal
UACC-257 melanoma = system: UACC-257 melanoma
K-562 leukemia = system: K-562 leukemia
CCRF-CEM leukemia = system: CCRF-CEM leukemia
SNB-19 CNS = system: SNB-19 CNS
SW-620 colon = system: SW-620 colon
786-0 renal = system: 786-0 renal
SK-MEL-2 melanoma = system: SK-MEL-2 melanoma
SK-MEL-28 melanoma = system: SK-MEL-28 melanoma
OVCAR-3 ovarian = system: OVCAR-3 ovarian
A549 NSCLC = system: A549 NSCLC
T-47D breast = system: T-47D breast
MALME-3M melanoma = system: MALME-3M melanoma
NCI/ADR-RES ovarian = system: NCI/ADR-RES ovarian
SNB-75 CNS = system: SNB-75 CNS
MOLT-4 leukemia = system: MOLT-4 leukemia
KM12 colon = system: KM12 colon
HOP-92 NSCLC = system: HOP-92 NSCLC
UACC-62 melanoma = system: UACC-62 melanoma
SK-OV-3 ovarian = system: SK-OV-3 ovarian
MDA-MB-435 = system: MDA-MB-435
LOX IMVI melanoma = system: LOX IMVI melanoma
HOP-62 NSCLC = system: HOP-62 NSCLC
HCC-2998 colon = system: HCC-2998 colon
HCT-15 colon = system: HCT-15 colon
RXF 393 renal = system: RXF 393 renal
HS 578T breast = system: HS 578T breast
MDA-MB-231 breast = system: MDA-MB-231 breast
SN12C renal = system: SN12C renal
RPMI-8226 leukemia = system: RPMI-8226 leukemia
NCI-H460 lung = system: NCI-H460 lung
SK-MEL-5 melanoma = system: SK-MEL-5 melanoma
U251 CNS = system: U251 CNS
MCF7 breast = system: MCF7 breast
OVCAR-8 ovarian = system: OVCAR-8 ovarian
UO-31 renal = system: UO-31 renal
SF-295 CNS = system: SF-295 CNS
OVCAR-4 ovarian = system: OVCAR-4 ovarian
SF-539 CNS = system: SF-539 CNS
OVCAR-5 ovarian = system: OVCAR-5 ovarian
A498 renal = system: A498 renal
DU-145 prostate = system: DU-145 prostate
IGROV1 ovarian = system: IGROV1 ovarian
NCI-H522 lung = system: NCI-H522 lung
HT29 colon = system: HT29 colon
PC-3 prostate = system: PC-3 prostate
CAKI-1 renal = system: CAKI-1 renal
TK-10 renal = system: TK-10 renal

## CCOC(=O)c1ccc(N(C=O)CCC(=O)CCl)cc1
SF-268 CNS
  GI50: 411 nM
  TGI: 4950 nM
NCI-H23 lung
  GI50: 483 nM
  TGI: 7810 nM
COLO 205 colon
  GI50: 315 nM
  TGI: 838 nM
NCI-H226 lung
  GI50: 297 nM
  TGI: 1360 nM
HCT-116 colon
  GI50: 34.2 nM
  TGI: 1730 nM
HL-60(TB) leukemia
  GI50: 43.8 nM
  TGI: 351 nM
BT-549 breast
  GI50: 58.8 nM
  TGI: 884 nM
M14 melanoma
  GI50: 55.3 nM
  TGI: 1500 nM
ACHN renal
  GI50: 432 nM
  TGI: 1810 nM
UACC-257 melanoma
  GI50: 1500 nM
  TGI: 8330 nM
K-562 leukemia
  GI50: 35.3 nM
  TGI: > 69300 nM
CCRF-CEM leukemia
  GI50: 37 nM
  TGI: 1600 nM
SNB-19 CNS
  GI50: 2370 nM
  TGI: 22400 nM
SW-620 colon
  GI50: 39.8 nM
  TGI: 1530 nM
786-0 renal
  GI50: 333 nM
  TGI: 4080 nM
SK-MEL-2 melanoma
  GI50: 465 nM
  TGI: 2140 nM
SK-MEL-28 melanoma
  GI50: 1740 nM
  TGI: 15200 nM
OVCAR-3 ovarian
  GI50: 399 nM
  TGI: 1350 nM
A549 NSCLC
  GI50: 1370 nM
  TGI: 12700 nM
T-47D breast
  GI50: 1160 nM
  TGI: 3450 nM
MALME-3M melanoma
  GI50: 1490 nM
  TGI: 3480 nM
NCI/ADR-RES ovarian
  GI50: 393 nM
  TGI: 19400 nM
SNB-75 CNS
  GI50: 997 nM
  TGI: 13600 nM
MOLT-4 leukemia
  GI50: 43.3 nM
  TGI: 3880 nM
KM12 colon
  GI50: 400 nM
  TGI: 15400 nM
HOP-92 NSCLC
  GI50: 64 nM
  TGI: 794 nM
UACC-62 melanoma
  GI50: 524 nM
  TGI: 3690 nM
SK-OV-3 ovarian
  GI50: 1410 nM
  TGI: 13200 nM
MDA-MB-435
  GI50: 90.8 nM
  TGI: 370 nM
LOX IMVI melanoma
  GI50: 58.6 nM
  TGI: 1310 nM
HOP-62 NSCLC
  GI50: 485 nM
  TGI: 13400 nM
HCC-2998 colon
  GI50: 372 nM
  TGI: 1540 nM
HCT-15 colon
  GI50: 48.7 nM
  TGI: 2580 nM
RXF 393 renal
  GI50: 260 nM
  TGI: 4490 nM
HS 578T breast
  GI50: 311 nM
  TGI: 2890 nM
MDA-MB-231 breast
  GI50: 275 nM
  TGI: 1160 nM
SN12C renal
  GI50: 217 nM
  TGI: 4270 nM
RPMI-8226 leukemia
  GI50: 130 nM
  TGI: 2830 nM
NCI-H460 lung
  GI50: 355 nM
  TGI: 11100 nM
SK-MEL-5 melanoma
  GI50: 344 nM
  TGI: 1550 nM
U251 CNS
  GI50: 342 nM
  TGI: 10800 nM
MCF7 breast
  GI50: 53.2 nM
OVCAR-8 ovarian
  GI50: 99.8 nM
  TGI: 11300 nM
UO-31 renal
  GI50: 552 nM
  TGI: 1980 nM
SF-295 CNS
  GI50: 1200 nM
  TGI: 13000 nM
OVCAR-4 ovarian
  GI50: 79 nM
  TGI: 3610 nM
SF-539 CNS
  GI50: 249 nM
  TGI: 778 nM
OVCAR-5 ovarian
  GI50: 474 nM
  TGI: 9230 nM
A498 renal
  GI50: 1470 nM
  TGI: 5870 nM
DU-145 prostate
  GI50: 366 nM
  TGI: 13900 nM
IGROV1 ovarian
  GI50: 537 nM
  TGI: 8330 nM
NCI-H522 lung
  GI50: 138 nM
  TGI: 617 nM
HT29 colon
  GI50: 186 nM
  TGI: 1180 nM
PC-3 prostate
  GI50: 401 nM
  TGI: 14800 nM
CAKI-1 renal
  GI50: 528 nM
  TGI: 2050 nM
TK-10 renal
  GI50: 1780 nM
  TGI: 7030 nM
